Source: the supplement of paper PMC10307832

Assays:
Assay in all cases: relative viability (nuclei count vs DMSO), 5 days (fraction); higher = more cells survive
RO-3306 + Alpelisib = compound: C1=CC2=C(C=CC(=C2)C=C3C(=O)NC(=NCC4=CC=CS4)S3)N=C1 [RO-3306] + Cc1nc(NC(=O)N2CCC[C@H]2C(N)=O)sc1-c1ccnc(C(C)(C)C(F)(F)F)c1 [Alpelisib] (partner 2 µM)
Summary of the method: (§1)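 Relative viability divides the nuclei count in treated wells by that in vehicle wells. Lung cancer cell lines were seeded in 1536-well plates, dosed by pin tool the next day, and fixed and stained after 5 days in one step with final 0.05% Triton X-100, 1% formaldehyde and 1 ug/ml Hoechst. Dosing was a single drug or a fixed anchor-drug dose plus five library-drug doses (not always all listed) in √10 steps, and values are medians of duplicate plates imaged at 4×.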

[1] = compound: O=S(=O)(c1ccccc1)N(CC(F)(F)F)c1ccc(C(O)(C(F)(F)F)C(F)(F)F)cc1 + CC(=O)Nc1cccc(-n2c(=O)n(C3CC3)c(=O)c3c(Nc4ccc(I)cc4F)n(C)c(=O)c(C)c32)c1 [Trametinib] (partner 0.02 µM)
Summary of the method: as §1

RO-3306 + Decitabine = compound: C1=CC2=C(C=CC(=C2)C=C3C(=O)NC(=NCC4=CC=CS4)S3)N=C1 [RO-3306] + Nc1ncn([C@H]2C[C@H](O)[C@@H](CO)O2)c(=O)n1 [Decitabine] (partner 2 µM)
Summary of the method: as §1

[2] = compound: O=S(=O)(c1ccccc1)N(CC(F)(F)F)c1ccc(C(O)(C(F)(F)F)C(F)(F)F)cc1 + COc1cc2c(Oc3ccc(NC(=O)C4(C(=O)Nc5ccc(F)cc5)CC4)cc3F)ccnc2cc1OCCCN1CCOCC1 [Foretinib] (partner 0.25 µM)
Summary of the method: as §1

Cell Line	relative viability (RO-3306 + Alpelisib; first compound 0.01 µM)	relative viability (RO-3306 + Alpelisib; first compound 0.03162 µM)	relative viability (RO-3306 + Alpelisib; first compound 0.1 µM)	relative viability (RO-3306 + Alpelisib; first compound 0.3162 µM)	relative viability (RO-3306 + Alpelisib; first compound 1 µM)	relative viability ([1]; first compound 0.8 µM)	relative viability ([1]; first compound 2.53 µM)	relative viability ([1]; first compound 8 µM)	relative viability (RO-3306 + Decitabine; first compound 0.01 µM)	relative viability (RO-3306 + Decitabine; first compound 0.03162 µM)	relative viability (RO-3306 + Decitabine; first compound 0.1 µM)	relative viability (RO-3306 + Decitabine; first compound 0.3162 µM)	relative viability (RO-3306 + Decitabine; first compound 1 µM)	relative viability ([2]; first compound 0.8 µM)	relative viability ([2]; first compound 2.53 µM)	relative viability ([2]; first compound 8 µM)
NCI-H441	1	0.556	0.563	0.657	0.66	0.387	0.348	0.423	0.216	0.211	0.253	0.277	0.244	0.916	0.927	0.952
HCC-366	0.377	0.347	0.389	0.503	0.34	0.469	0.335	0.23	0.363	0.281	0.348	0.37	0.402	0.96	0.937	1.04
NCI-H2085	1.07	0.926	0.922	0.968	0.952	0.471	0.496	0.472	0.54	0.506	0.463	0.539	0.578	0.886	0.725	0.885
SW 1573	0.701		0.848	0.832	0.905	0.638	0.537	0.472	0.537	0.461	0.401	0.507	0.45	0.954	0.898	1.04
NCI-H1299	1.07	0.808	1.05	1.07	1.12									1.1	1.07	1
H3255	0.576	0.59	0.632	0.628	0.6	0.623	0.565	0.649	0.727	0.509	0.625	0.641	0.57	0.866	0.673	0.786
NCI-H2023	0.758	0.448	0.558	0.661	0.564	0.593	0.428	0.358	0.25	0.285	0.208	0.218	0.213	0.957	0.73	0.66
HOP-62	1.02	0.992	0.933	1.04	0.986	0.391	0.297	0.355	0.229	0.239	0.207	0.222	0.249	1.08	1.09	0.881
LC-2-ad	1.07	0.832	0.846	0.887	0.812	0.881	0.884	0.758	0.869	0.776	0.743	0.785	0.759	1.06	0.912	0.867
NCI-H2347	1.13	0.759	1.01	1.05	0.951	0.304	0.277	0.292	0.643	0.597	0.592	0.574	0.645	1.2	0.996	0.683
